Experiment: GHS categories as the set defines them, by LD50: 1 up to 5, 2 up to 50, 3 up to 300, 4 up to 2000, 5 above 2000 mg/kg
Conditions: rat; in vivo; po

Row | Compound | GHS category
1 | CCC1OC(=O)C(C)C(OC2CC(C)(OC)C(O)C(C)O2)C(C)C(OC2OC(C)CC(N(C)C)C2O)C(C)(O)CC(C)(F)C(=O)C(C)C(O)C1(C)O (stereo not drawn) | 5
2 | Cc1ccc(NC(=O)c2cc(C)[nH]n2)cc1 | 5
3 | NS(=O)(=O)c1cc2c(cc1Cl)N=C(CSCc1ccccc1)NS2(=O)=O | 5
4 | CCOC(=O)C(=O)Nc1cc(OCCOCCOC)ncn1 | 4
5 | COC(=O)Nc1nc2ccc(OCc3ccccc3)cc2[nH]1 | 5
6 | Cc1cccc(NC(=O)c2cc(C)[nH]n2)c1 | 5
7 | CCCCCCCCCCCc1ccccc1 | 5
8 | Nc1ccc2c(c1)C(=O)c1ccccc1C2=O | 5
9 | NC(=O)Oc1ccccc1C(=O)Oc1ccc(Cl)cc1Cl | 5
10 | COc1ccccc1N1CCN(/C(=N\CCCO)Nc2ccccc2)CC1 | 4
11 | Cc1ccc2[nH]c3cc4c(=O)c5cc(C)ccc5[nH]c4cc3c(=O)c2c1 | 5
12 | N#C[Se]Cc1ccc(C[Se]C#N)cc1 | 4
13 | Nc1c(Br)cc([N+](=O)[O-])cc1Br | 4
14 | CCn1nnnc1CSCCC(N)=O | 4
15 | CCSC | 5
16 | O=C(CCl)Nc1nc2cc(Cl)ccc2o1 | 4
17 | CC1CC(C)C(C)CC1C (stereo not drawn) | 5
18 | COC(=O)CC(N)=S | 4
19 | CC(C)C1=CC23CCC4C(C)(C(=O)N5CCN(CCO)CC5)CCCC4(C)C2CC1C1C(=O)OC(=O)C13 (stereo not drawn) | 5
20 | c1ccc2sc(SSc3nc4ccccc4s3)nc2c1 | 5
21 | C=C(C)C(=O)OCCOC(=O)c1ccc2c(c1)C(=O)OC2=O | 5
22 | CCCCCOC=O | 5
23 | COCCCCC(=O)c1ccc(C(F)(F)F)cc1 | 5
24 | CCCO[Si](OCCC)(OCCC)OCCC | 5

Row | Compound | GHS category
25 | N#Cc1c[nH]cc1-c1cccc2c1OC(F)(F)O2 | 5
26 | Cc1ccc(C(=O)O)cc1[N+](=O)[O-] | 5
27 | CN(C)Cn1c(=O)oc2ccc(Cl)cc21 | 4
28 | CCCC(C)C=O (stereo not drawn) | 5
29 | CC(CC(C)(C)C)CC(C)(C)CC(C)(C)C (stereo not drawn) | 5
30 | Cn1nnnc1SCCCC(=O)NCc1ccco1 | 4
31 | CC1N=C(c2ccccc2Cl)c2c(ccc(NC(=O)NCCO)c2Cl)N(C)C1=O (stereo not drawn) | 5
32 | CO[C@H]1C=CO[C@@]2(C)Oc3c(C)c(O)c4c(c3C2=O)C2=NC3(CCN(CC(C)C)CC3)NC2=C(NC(=O)C(C)=CC=C[C@H](C)[C@H](O)[C@@H](C)[C@@H](O)[C@@H](C)[C@H](OC(C)=O)[C@@H]1C)C4=O | 5
33 | CCn1cc[n+](C)c1 | 5
34 | Cn1c(=O)c2c([nH]c(=O)n2C)n(C)c1=O | 5
35 | COc1ccc(C2COc3ccccc3O2)cc1O (stereo not drawn) | 5
36 | CCOC(=O)C(C)O (stereo not drawn) | 5
37 | CC(c1ccccc1)c1ccc(Nc2ccc(C(C)c3ccccc3)cc2)cc1 (stereo not drawn) | 5
38 | C=CC(=O)Oc1c(Br)cc(Cl)c2cccnc12 | 5
39 | CCN(CC)CCN(CCN(CC)CC)n1cc(-c2ccc(Cl)cc2)c2cc(C)ccc21 | 4
40 | CCN(CC)c1ccc(C=NN(c2ccccc2)c2ccccc2)cc1 | 5
41 | CCCC(CCC)C(=O)Oc1cc(C)ccc1C(C)C | 5
42 | CC(C=O)(CO)CO | 5
43 | COC(=O)c1ccc(C(=O)OC)c([N+](=O)[O-])c1 | 5
44 | CC(C)CCCCCCCCCCCCCCC(=O)O | 5
45 | Cc1cc(C)c(C2=C(OC(=O)CC(C)(C)C)C3(CCCC3)OC2=O)c(C)c1 | 5
46 | CC(C)(C)CC(C)(C)c1ccc(O)c(Cc2ccc(Cl)cc2Cl)c1 | 5
47 | CCOC(=O)CC1(C)OCCO1 | 5
48 | CCC(C)C(C#N)(CCN(CC=C(C)C)CC=C(C)C)c1cccc2ccccc12 (stereo not drawn) | 4

Row | Compound | GHS category
49 | CCCCCOC(=O)CCCCC | 5
50 | Nc1nc2cc(Cl)cc(S(=O)(=O)O)c2o1 | 4
51 | COc1ccc2c(c1)CCN(c1ccccc1)C2c1ccccc1Br (stereo not drawn) | 4
52 | O=C=Nc1cccc2ccccc12 | 5
53 | COc1ccccc1C(=O)NS(=O)(=O)c1ccc(C(=O)NC2CC2)cc1 | 5
54 | Clc1ccc(C(Cn2ccnc2)OCc2ccc(Sc3ccccc3)cc2)c(Cl)c1 (stereo not drawn) | 5
55 | C=C(C)C(CC=C(C)C)COC(=O)C=C(C)C (stereo not drawn) | 5
56 | OCc1cncs1 | 5
57 | Cc1nnc(SCC2=C(C(=O)O)N3C(=O)[C@@H](NC(=O)Cn4cnnn4)[C@H]3SC2)s1 | 5
58 | CCC1COC(Cn2ccnc2)(c2cc3cc(Cl)cc(Cl)c3o2)O1 (stereo not drawn) | 4
59 | ClC1=C(Cl)C2(Cl)C3COCC3C1(Cl)C2(Cl)Cl (stereo not drawn) | 5
60 | CC1CC(OC(=O)C(C)Oc2ccc(Cl)cc2)CC(C)(C)C1 (stereo not drawn) | 5
61 | CCCCCNCC(N)=O | 5
62 | O=NNC1=NCCN1Cc1ccc(Cl)nc1 | 5
63 | CCO[Si](CCCNC=O)(OCC)OCC | 5
64 | CCOC(=O)CCSc1cc(NC(=O)C(=O)OCC)ncn1 | 4
65 | O=C(NC(=O)C(Cl)(Cl)Cl)NS(=O)(=O)c1ccccc1 | 5
66 | CC/C=C\CCC1(C)CCC(=O)O1 (stereo not drawn) | 5
67 | CC(=O)OCC1=CC[C@@]23C[C@@H]1C(C)(C)[C@@H]2CC[C@H]3C | 5
68 | CCCC1CCCC(=O)O1 (stereo not drawn) | 5
69 | CCCCOC(=O)C(C)O (stereo not drawn) | 5
70 | C=C1CC[C@H](O)C/C1=C/C=C1\CCC[C@]2(C)[C@@H]([C@H](C)CC[C@@H](O)C(C)(C)O)CC[C@@H]12 | 2
71 | CC(=O)OCC1=C(C(=O)O)N2C(=O)[C@@H](N)[C@H]2SC1 | 5
72 | CNC(=O)c1cc(Cl)cc(C)c1NC(=O)c1cc(Br)nn1-c1ncccc1Cl | 5

Row | Compound | GHS category
73 | c1ccc([Si]2(c3ccccc3)O[Si](c3ccccc3)(c3ccccc3)O[Si](c3ccccc3)(c3ccccc3)O[Si](c3ccccc3)(c3ccccc3)O2)cc1 | 5
74 | CCCCC(=O)O[C@]1(C(=O)CO)[C@@H](C)C[C@H]2[C@@H]3CCC4=CC(=O)C=C[C@]4(C)[C@@]3(F)[C@@H](O)C[C@@]21C | 5
75 | CC(C)(C)C1CCC(OC(=O)Cl)CC1 (stereo not drawn) | 5
76 | CCCCCCCC(=O)OCCCCCC | 5
77 | CCCCCCCCCCOCCN1CCCC1=O | 5
78 | C=CC(C)(CCC=C(C)CC)OC(C)=O (stereo not drawn) | 5
79 | CCOC(=O)Cn1c(=O)sc2cccc(Cl)c21 | 5
80 | CCCCCCc1ccc(OP(=O)(Oc2ccccc2)Oc2ccccc2)cc1 | 5
81 | CC(=O)N(C)C(=O)Oc1cccc2c1OC(C)(C)O2 | 4
82 | COc1ccc2c(c1)CCN(c1ccccc1)C2c1ccccc1[N+](=O)[O-] (stereo not drawn) | 4
83 | COc1ccc(C=CC(C)=O)cc1 | 5
84 | Cc1cc(OP(Oc2cc(C)c(C(C)(C)C)cc2C(C)(C)C)Oc2cc(C)c(C(C)(C)C)cc2C(C)(C)C)c(C(C)(C)C)cc1C(C)(C)C | 5
85 | CCOS(=O)(=O)c1cc(C(C)(C)C)cc2cc(C(C)(C)C)ccc12 | 5
86 | Nc1cc(Br)c(O)c2c(O)c3c(N)cc(Br)c(O)c3c(O)c12 | 5
87 | Brc1ccc(N/C(=N/C2CCCCC2)c2ccccc2)cc1 | 5
88 | CC(C)=CCCC(C)(C)O | 5
89 | CO[C@@H]1[C@@H](O[C@@H]2O[C@H](C)[C@@H](O[C@H]3C[C@@](C)(O)[C@@H](O)[C@H](C)O3)[C@H](N(C)C)[C@H]2O)[C@@H](CC=O)C[C@@H](C)[C@@H](O[C@@H]2CC[C@H](N(C)C)[C@@H](C)O2)C=CC=CC[C@@H](C)OC(=O)C[C@H]1OC(C)=O | 5
90 | C[C@@H]1CN(c2c(F)c(N)c3c(=O)c(C(=O)O)cn(C4CC4)c3c2F)C[C@H](C)N1 (racemic) | 5
91 | CCOCOC1CCCCCCCCCCC1 | 5
92 | C[C@@H](Oc1cc(Br)cnc1N)c1c(Cl)ccc(F)c1Cl | 5
93 | CCN(C(=O)CCCSc1nnnn1C)c1ccccc1 | 4
94 | C#CCOC(=O)Nc1nc(N2CC=CCC2)cc2nc(=O)on12 | 5
95 | CCC=CCCOC(=O)C(C)C | 5
96 | CC(=O)Oc1ccccc1C(=O)Nc1ncc([N+](=O)[O-])s1 | 5

Row | Compound | GHS category
97 | O=S(=O)(O)c1ccc(Nc2nc(Cl)nc(Cl)n2)cc1 | 5
98 | O=c1nc(Cl)nc(Cl)[nH]1 | 5
99 | C[C@H]1c2cccc(O)c2C(=O)C2=C(O)[C@]3(O)C(=O)C(C(N)=O)=C(O)[C@@H](N(C)C)[C@@H]3[C@@H](O)[C@@H]21 | 5
100 | CC(C)CC(C)c1ccccc1N (stereo not drawn) | 5
101 | CC(=O)Nc1ccc(S(=O)(=O)Cl)cc1 | 5
102 | O=C(OCCOCCO)c1cc(O)ccc1Nc1cccc(C(F)(F)F)c1 | 4
103 | NC[C@@H]1CC[C@@H](N)[C@@H](O[C@H]2[C@H](O)[C@@H](O[C@H]3O[C@H](CO)[C@@H](O)[C@H](N)[C@H]3O)[C@H](N)C[C@@H]2N)O1 | 5
104 | COCCOC(=O)C(=O)Nc1nc(-c2ccccc2)cs1 | 5
105 | CCCCOc1nn(-c2cccc(C(F)(F)F)c2)c2ncccc12 | 4
106 | Brc1cc(Br)c(Oc2nc(Oc3c(Br)cc(Br)cc3Br)nc(Oc3c(Br)cc(Br)cc3Br)n2)c(Br)c1 | 5
107 | CC1CC(C)(C)OC(Cn2cncn2)(c2cc3ccccc3o2)O1 (stereo not drawn) | 4
108 | CCCCOC(=O)c1ccc(-n2nc(OCCCN3CCCCC3)c3ccccc32)cc1 | 4
109 | O=C(Nc1ccccc1C(=O)O)C(=Cc1ccccc1)C(=O)Nc1ccccc1C(=O)O | 5
110 | CCOC(=O)C(Cl)(Cl)Cl | 5
111 | CCc1cc(Cc2cc(CC)cc(C(C)(C)C)c2O)c(O)c(C(C)(C)C)c1 | 5
112 | CCC1(CO)COCOC1 | 5
113 | CC(C)CCOCCC(C)C | 5
114 | CCC(C)(Oc1ccc(C2(c3ccc(OC(C)(CC)C(=O)O)cc3)CCCCC2)cc1)C(=O)O (stereo not drawn) | 5
115 | CN(C)c1ccc(C=Nc2ccccc2C(=O)O)cc1 | 4
116 | CC(C)OC(=O)c1cc(C(=O)OC(C)C)cc([N+](=O)[O-])c1 | 5
117 | CC(=O)CC(=O)OCCOC(=O)CC(C)=O | 5
118 | COC(=O)c1ccc(C(=O)Nc2cc(Cl)ccc2Cl)cc1[N+](=O)[O-] | 4

— the CATMoS acute toxicity set (Mansouri et al. 2021)
